Results published in US10092575B2, “Substituted thiophene- and furan-fused azolopyrimidine-5-(6H)-one compounds” (DART NEUROSCIENCE (CAYMAN) LTD., priority 2012, dated 2018).
pEC50: −log10 of the molar value.

target: human PDE1b enzyme (Homo sapiens (Human), UniProt Q01064); experiment: PDE1b inhibitory assay (IMAP TR-FRET); settings: not given

`CC(C)CCc1cc2c(s1)n(Cc1ccc(Cl)cc1)c(=O)n1ncnc21` [Example 23, 6-(4-Chlorobenzyl)-8-isopentylthieno[3,2-e][1,2,4]triazolo[1,5-c]pyrimidin-5(6H)-one] was tested. Which pEC50 did it give?
Its pEC50 is 6.00 to 7.00.

`CCN(Cc1csc2c1c1ncnn1c(=O)n2Cc1ccc(OC)cc1)CC1CCOCC1` [Example 197, 9-((Ethyl((tetrahydro-2H-pyran-4-yl)methyl)amino)methyl)-6-(4-methoxybenzyl)thieno[3,2-e][1,2,4]triazolo[1,5-c]pyrimidin-5(6H)-one] was tested. Which pEC50 did it give?
The pEC50 was 6.00 to 7.00.

`COc1ccc(Cn2c(=O)n3ncnc3c3c(C)c(CN4CCCC4)sc32)cc1` [Example 43, 6-(4-Methoxybenzyl)-9-methyl-8-(pyrrolidin-1-ylmethyl)thieno[3,2-e][1,2,4]triazolo[1,5-c]pyrimidin-5(6H)-one] was tested. Which pEC50 did it give?
The pEC50 was 6.00 to 7.00.

`COc1ccc(Cn2c(=O)n3ncnc3c3cc(CN4CCN(C)CC4)sc32)cc1` [Example 32, 6-(4-Methoxybenzyl)-8-((4-methylpiperazin-1-yl)methyl)thieno[3,2-e][1,2,4]triazolo[1,5-c]pyrimidin-5(6H)-one] was tested. Which pEC50 did it give?
Its pEC50 is 6.00 to 7.00.

`Cc1csc2c1c1ncnn1c(=O)n2Cc1ccccc1` [Example 6, 6-Benzyl-9-methylthieno[3,2-e][1,2,4]triazolo[1,5-c]pyrimidin-5(6H)-one] was tested. Which pEC50 did it give?
Its pEC50 is 6.00 to 7.00.

How did the pEC50 turn out when `COc1ccc(Cn2c(=O)n3ncnc3c3cc(CN4C[C@@H](C)O[C@@H](C)C4)sc32)c(F)c1F` [Example 200, 6-(2,3-Difluoro-4-methoxybenzyl)-8-(((2R,6S)-2,6-dimethylmorpholino)methyl)thieno[3,2-e][1,2,4]triazolo[1,5-c]pyrimidin-5(6H)-one] was run?
Its pEC50 is 5.00 to 6.00.

With `COc1ccc(Cn2c(=O)n3ncnc3c3cc(CN4CC(O)C4)sc32)c(F)c1F` [Example 212, 6-(2,3-Difluoro-4-methoxybenzyl)-8-((3-hydroxyazetidin-1-yl)methyl)thieno[3,2-e][1,2,4]triazolo[1,5-c]pyrimidin-5(6H)-one] as the molecule, how does the pEC50 read?
Its pEC50 is 6.00 to 7.00.

`COc1ccc(Cn2c(=O)n3ncnc3c3c(C)c(Br)sc32)cc1` [Example 76, 8-Bromo-6-(4-methoxybenzyl)-9-methylthieno[3,2-e][1,2,4]triazolo[1,5-c]pyrimidin-5(6H)-one] was tested. Which pEC50 did it give?
Its pEC50 is 6.00 to 7.00.

`COc1ccc(Cn2c(=O)n3ncnc3c3cc(CN4CCOCC4)sc32)c(F)c1` [Example 208, 6-(2-Fluoro-4-methoxybenzyl)-8-(morpholinomethyl)thieno[3,2-e][1,2,4]triazolo[1,5-c]pyrimidin-5(6H)-one] was tested. Which pEC50 did it give?
Its pEC50 is 6.00 to 7.00.

With `CC(C)CCc1cc2c(s1)n(Cc1cccc(Cl)c1)c(=O)n1ncnc21` [Example 20, 6-(3-Chlorobenzyl)-8-isopentylthieno[3,2-e][1,2,4]triazolo[1,5-c]pyrimidin-5(6H)-one] as the molecule, how does the pEC50 read?
Its pEC50 is 5.00 to 6.00.

same assay, conditions: negative log of half-maximal molar inhibitory concentration; 200 nM FAM-cAMP; reported as ranges

`COc1ccc(Cn2c(=O)n3ncnc3c3c4c(sc32)N(C(=O)C2CCOC2)CCC4)cc1` (stereo not drawn) [Example 175, 6-(4-Methoxybenzyl)-8-(tetrahydrofuran-3-carbonyl)-8,9,10,11-tetrahydropyrido[3′,2′:4,5]thieno[3,2-e][1,2,4]triazolo[1,5-c]pyrimidin-5(6H)-one] was tested. Which “PDE1b (pEC50)” value did it give?
The value was greater than 7.

`COc1ccc(Cn2c(=O)n3ncnc3c3c4c(sc32)CN(CC2CCCCO2)CC4)cc1` (stereo not drawn) [Example 117, 6-(4-Methoxybenzyl)-9-((tetrahydro-2H-pyran-2-yl)methyl)-8,9,10,11-tetrahydropyrido[4′,3′:4,5]thieno[3,2-e][1,2,4]triazolo[1,5-c]pyrimidin-5(6H)-one] was tested. Which “PDE1b (pEC50)” value did it give?
Its value is greater than 7.

With `COC[C@@H]1CCCN1Cc1sc2c(c1C)c1ncnn1c(=O)n2Cc1ccc(OC)cc1` [Example 58, (S)-6-(4-Methoxybenzyl)-8-((2-(methoxymethyl)pyrrolidin-1-yl)methyl)-9-methylthieno[3,2-e][1,2,4]triazolo[1,5-c]pyrimidin-5(6H)-one] as the molecule, how does the “PDE1b (pEC50)” value read?
The value was greater than 7.

Which “PDE1b (pEC50)” value does the source give for `COc1ccc(Cn2c(=O)n3ncnc3c3c4c(sc32)CN(Cc2ccncn2)CC4)cc1` [Example 119, 6-(4-Methoxybenzyl)-9-(pyrimidin-4-ylmethyl)-8,9,10,11-tetrahydropyrido[4′,3′:4,5]thieno[3,2-e][1,2,4]triazolo[1,5-c]pyrimidin-5(6H)-one] here?
The value was greater than 7.

For `COc1ccc(Cn2c(=O)n3ncnc3c3cc(-c4cc(C(F)(F)F)nn4C)sc32)cc1` [Example 41, 6-(4-Methoxybenzyl)-8-(1-methyl-3-(trifluoromethyl)-1H-pyrazol-5-yl)thieno[3,2-e][1,2,4]triazolo[1,5-c]pyrimidin-5(6H)-one], which “PDE1b (pEC50)” value is on record?
The value was greater than 7.

For `COc1ccc(Cn2c(=O)n3ncnc3c3c(C)c(CN(C)C4CC4)sc32)cc1` [Example 46, 8-((Cyclopropyl(methyl)amino)methyl)-6-(4-methoxybenzyl)-9-methylthieno[3,2-e][1,2,4]triazolo[1,5-c]pyrimidin-5(6H)-one], which “PDE1b (pEC50)” value is on record?
The value was greater than 7.

With `COc1ccc(Cn2c(=O)n3ncnc3c3c(C)c(CN4CCCOCC4)sc32)cc1` [Example 61, 8-((1,4-Oxazepan-4-yl)methyl)-6-(4-methoxybenzyl)-9-methylthieno[3,2-e][1,2,4]triazolo[1,5-c]pyrimidin-5(6H)-one] as the molecule, how does the “PDE1b (pEC50)” value read?
Its value is greater than 7.

How did the “PDE1b (pEC50)” value turn out when `COc1ccc(Cn2c(=O)n3ncnc3c3c4c(sc32)COCC4)cc1` [Example 90, 6-(4-Methoxybenzyl)-6,8,10,11-tetrahydro-5H-pyrano[4′,3′:4,5]thieno[3,2-e][1,2,4]triazolo[1,5-c]pyrimidin-5-one] was run?
Its value is greater than 7.

`COc1ccc(Cn2c(=O)n3ncnc3c3c4c(sc32)CN(CC2CCCOC2)CC4)cc1` (stereo not drawn) [Example 134, 6-(4-Methoxybenzyl)-9-((tetrahydro-2H-pyran-3-yl)methyl)-8,9,10,11-tetrahydropyrido[4′,3′:4,5]thieno[3,2-e][1,2,4]triazolo[1,5-c]pyrimidin-5(6H)-one] was tested. Which “PDE1b (pEC50)” value did it give?
Its value is greater than 7.

Which “PDE1b (pEC50)” value does the source give for `COc1ccc(Cn2c(=O)n3ncnc3c3c(C)c(CN4C[C@@H](C)O[C@@H](C)C4)sc32)cc1` [Example 55, 8-(((2S,6R)-2,6-Dimethylmorpholino)methyl)-6-(4-methoxybenzyl)-9-methylthieno[3,2-e][1,2,4]triazolo[1,5-c]pyrimidin-5(6H)-one] here?
The value was greater than 7.

For `COc1c(F)cc(Cn2c(=O)n3ncnc3c3c4c(sc32)COCC4)cc1F` [Example 98, 6-(3,5-Difluoro-4-methoxybenzyl)-6,8,10,11-tetrahydro-5H-pyrano[4′,3′:4,5]thieno[3,2-e][1,2,4]triazolo[1,5-c]pyrimidin-5-one], which “PDE1b (pEC50)” value is on record?
The value was less than 5.

Which “PDE1b (pEC50)” value does the source give for `O=c1n(Cc2ccc(F)c(Cl)c2)c2sc(CN3CCOCC3)cc2c2ncnn12` [Example 209, 6-(3-Chloro-4-fluorobenzyl)-8-(morpholinomethyl)thieno[3,2-e][1,2,4]triazolo[1,5-c]pyrimidin-5(6H)-one] here?
The value was greater than 7.

With `Cc1cc2c(s1)n(Cc1ccc(-c3ccccc3)cc1)c(=O)n1ncnc21` [Example 14, 6-([1,1′-Biphenyl]-4-ylmethyl)-8-methylthieno[3,2-e][1,2,4]triazolo[1,5-c]pyrimidin-5(6H)-one] as the molecule, how does the “PDE1b (pEC50)” value read?
The value was less than 5.

With `COc1ccc(Cn2c(=O)n3ncnc3c3c4c(sc32)CN(C(=O)OC(C)(C)C)CC4)cc1` [Example 80, tert-Butyl 6-(4-methoxybenzyl)-5-oxo-5,6,10,11-tetrahydropyrido[4′,3′:4,5]thieno[3,2-e][1,2,4]triazolo[1,5-c]pyrimidine-9(8H)-carboxylate] as the molecule, how does the “PDE1b (pEC50)” value read?
Its value is greater than 7.
